# Measured values: patent US20130143929A1, “FUNGICIDAL IMIDAZOLES” (EI DU PONT DE NEMOURS AND COMPANY, priority 2010, published 2013)
# Marks after values point to notes of the source that are not given here.
# Experiments:
# Format in all cases: in vivo
# [1] = tested on: Puccinia recondite f. sp. tritici (the causal agent of wheat leaf rust); assay: Test A: wheat leaf rust, preventive spray on wheat seedlings, visual disease rating; details: wheat leaf rust, preventive spray on wheat seedlings
# How it was run: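 Wheat seedlings were sprayed to run-off with compound suspended in acetone/water containing 250 ppm Trem 014 (200 ppm ≈ 800 g/ha; some at 40 ppm). Puccinia recondite spores were inoculated the next day. Plants were held 24 h saturated at 20° C, then 7 days at 20° C, and disease control was rated visually on a 0–100 scale against controls.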
# [2] = tested on: Septoria tritici (the causal agent of wheat leaf blotch); assay: Test B: wheat leaf blotch, preventive spray on wheat seedlings, visual disease rating; details: wheat leaf blotch, preventive spray on wheat seedlings
# How it was run: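 Wheat seedlings sprayed to run-off with compound suspension (acetone/water with 250 ppm Trem 014; 200 ppm ≈ 800 g/ha, some at 40 ppm), inoculated next day with Septoria tritici spores. 48 h saturated humidity at 24 °C, then 19 days at 20 °C; visual rating, 100 = full control.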
# [3] = tested on: Botrytis cinerea (the causal agent of tomato Botrytis); assay: Test C: tomato Botrytis, preventive spray on tomato seedlings, visual disease rating; details: tomato Botrytis, preventive spray on tomato seedlings
# How it was run: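 Test suspension (acetone/water with 250 ppm Trem 014; 200 ppm equivalent to 800 g/ha) sprayed to run-off on tomato seedlings; B. cinerea spores inoculated next day. After 48 h saturated humidity at 20° C then 3 days at 24° C, disease rated visually as % control relative to untreated controls (0–100).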
# [4] = tested on: Blumeria graminis f. sp. tritici (also known as Erysiphe graminis f. sp. tritici, the causal agent of wheat powdery mildew); assay: Test D: wheat powdery mildew, preventive spray on wheat seedlings, visual disease rating; details: wheat powdery mildew, preventive spray on wheat seedlings
# How it was run: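 Compound suspended in acetone/water (50/50) with 250 ppm Trem 014 and sprayed to run-off on wheat seedlings (200 ppm ≈ 800 g/ha), then inoculated next day with spore dust. Disease rated visually after 8 days at 20 °C as % control relative to untreated plants (0-100).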
# [5] = no asterisk (standard test suspension concentration, not 40 ppm)
# [6] = asterisk: 40 ppm test suspension
SMILES,"Test A rating (100 = 100% disease control, 0 = no disease control relative to the controls) [1, 5]","Test B rating (100 = 100% disease control, 0 = no disease control relative to the controls) [2, 5]","Test C rating (100 = 100% disease control, 0 = no disease control relative to the controls) [3, 5]","Test D rating (100 = 100% disease control, 0 = no disease control relative to the controls) [4, 5]","Test A rating (100 = 100% disease control, 0 = no disease control relative to the controls) [1, 6]","Test B rating (100 = 100% disease control, 0 = no disease control relative to the controls) [2, 6]","Test C rating (100 = 100% disease control, 0 = no disease control relative to the controls) [3, 6]","Test D rating (100 = 100% disease control, 0 = no disease control relative to the controls) [4, 6]"
COc1cc(F)c(C(O)c2cnc(C)n2-c2ccc(F)cc2F)c(F)c1 (racemic) [compound 257],92%,24%,0%,0%,–,–,–,–
COc1cc(F)c(C(O)c2c(Br)nc(C)n2-c2ccc(F)cc2F)c(F)c1 (racemic) [compound 258],100%,95%,79%,0%,–,–,–,–
Cc1nc(Br)c(C(O)c2ccc(Cl)cc2Cl)n1-c1ccc(F)cc1F (racemic) [compound 259],99%,100%,0%,0%,–,–,–,–
COc1ccc(C(O)c2c(Cl)ncn2-c2c(F)cccc2F)c(Cl)c1 (racemic) [compound 260],100%,100%,100%,96%,–,–,–,–
COc1cc(F)c(C(O)c2c(Cl)nc(C)n2-c2ccc(F)cc2F)c(F)c1 (racemic) [compound 269],–,–,–,–,100* %,96* %,66* %,0* %
Cc1nc(Cl)c(C(O)c2ccc(Cl)cc2Cl)n1-c1ccc(F)cc1F (racemic) [compound 270],–,–,–,–,95* %,69* %,0* %,0* %
Cc1ncc(C(O)c2c(F)cc(Cl)cc2F)n1-c1ccc(F)cc1F (racemic) [compound 271],–,–,–,–,0* %,17* %,0* %,0* %
Cc1nc(Cl)c(C(O)c2ccc(F)cc2Br)n1-c1ccc(F)cc1Cl (racemic) [compound 272],–,–,–,–,100* %,100* %,93* %,21* %
Cc1nc(Cl)n(-c2c(F)cc(Cl)cc2F)c1C(O)c1ccc(F)cc1F (racemic) [compound 273],–,–,–,–,100* %,100* %,99* %,0* %
COc1ccc(C(O)c2c(Br)nc(C)n2-c2c(F)cccc2Cl)c(F)c1 (racemic) [compound 275],–,–,–,–,100* %,100* %,100* %,99* %
COc1ccc(C(O)c2c(Br)nc(C)n2-c2c(F)cccc2Cl)c(Cl)c1 (racemic) [compound 276],–,–,–,–,100* %,100* %,100* %,100* %
COc1ccc(C(O)c2c(Cl)nc(C)n2-c2c(F)cccc2Cl)c(F)c1 (racemic) [compound 277],–,–,–,–,100* %,100* %,100* %,97* %
COc1ccc(C(O)c2c(Cl)nc(C)n2-c2c(F)cccc2Cl)c(Cl)c1 (racemic) [compound 278],–,–,–,–,100* %,100* %,100* %,97* %
COc1cc(OC)cc(-n2c(C)nc(Br)c2C(O)c2c(F)cc(F)cc2F)c1 (racemic) [compound 279],–,–,–,–,0* %,0* %,0* %,0* %
COc1cc(F)ccc1C(O)c1c(Br)nc(C)n1-c1c(F)cccc1F (racemic) [compound 281],–,–,–,–,92* %,0* %,0* %,0* %
COc1ccc(C(O)c2cnc(C)n2-c2ccc(F)cc2F)c(Cl)c1 (racemic) [compound 282],–,–,–,–,92* %,63* %,0* %,0* %
COc1ccc(C(O)c2cnc(C)n2-c2ccc(F)cc2F)c(F)c1 (racemic) [compound 283],–,–,–,–,41* %,0* %,0* %,0* %
COc1ccc(C(O)c2c(Br)nc(C)n2-c2ccc(F)cc2F)c(F)c1 (racemic) [compound 284],–,–,–,–,100* %,100* %,41* %,0* %
COc1ccc(C(O)c2c(Br)nc(C)n2-c2ccc(F)cc2F)c(Cl)c1 (racemic) [compound 285],–,–,–,–,99* %,88* %,0* %,0* %
COc1ccc(C(O)c2c(Br)nc(Br)n2-c2c(F)cccc2F)c(Cl)c1 (racemic) [compound 286],–,–,–,–,100* %,100* %,100* %,97* %
